Reference: patent publication US8911769B2, “Orally disintegrating pharmaceutical composition comprising diclofenac” (Novartis AG, priority 2004, dated 2014)

Assays:
[1] = Non-aggregation of diclofenac free acid in dispersion (Malvern laser particle size analyzer); type: physicochemical
Method: For example, the edible film of Example 2 completely disintegrates within 15 seconds. • (b) Plasma levels of diclofenac: The plasma levels of diclofenac are measured in vivo, e.g. in pigs, at different time intervals after oral administration of the edible films. Edible films according to the invention may produce similar plasma levels of diclofenac as a commercially available tablet comprising 12.5 mg diclofenac potassium (Voltaren® Dolo) [AUC (=Area Under the Curve) is essentially the same]. Tmax may be even shorter in edible films than in Voltaren® Dolo—what is desirable in many cases. • (c) Consumer testing of the organoleptic properties of the edible films: The perception of the edible films immediately after administration is tested. An immediate softening and pleasant feeling in the mouth are realized. • (d) Taste evaluation of the edible films: The taste of the edible films is evaluated in vitro with the aid of an “electronic tongue” equipment and also in consumer tests. […] For example, the particle size of—non-micronized or micronized—diclofenac free acid is measured with the aid of a Malvern (UK) laser particle size analyzer equipment before and after processing, under different conditions of manufacture, to an edible film.

[2] = in water and ethanol/water mixtures; cited from earlier work

For `O=C(O)Cc1ccccc1Nc1c(Cl)cccc1Cl` [diclofenac free acid], the “particle size distribution profile, starting material versus released from edible films” value ([1]; before and after processing to an edible film (with ethanol, without ethanol, without ethanol with homogenization), disintegrated in water) is listed as “essentially is no difference”, the aggregation in dispersion ([1]; non-micronized (mean particle size 16 micrometers) or micronized, solvents e.g. water, water/ethanol or ethanol) is listed as “no such aggregation does occur” and the solubility [2] is listed as “only poorly soluble”.
